In patent US20240228469A1, “PCSK9 INHIBITORS AND METHODS OF USE THEREOF” (AstraZeneca AB, priority 2022, published 2024):

Columns and labels:
[1] = target: T1, potassium ion channel hERG (Homo sapiens, UniProt Q12809); experiment: Assay 5 hERG assay (patch clamp, CHO cells over-expressing hERG); format: cell-based; settings: SyncroPatch 384PE, room temperature, geometric mean, read-out: Assay 5 (hERG Hu CHO if EPh CR-Syncro) GMean IC50
T1 construct: expressed in transfected cells; host or cells: Chinese hamster ovary K1 (CHO)
Method: This assay (human Ether-d-go-go-Related Gene) measures activity of the compounds at the potassium ion channel hERG (human Ether-d-go-go-Related Gene).
Experiments were performed on the SyncroPatch 384PE high throughput patch clamp platform at room temperature and medium resistance chips with 4 patch holes per site. Chinese hamster ovary K1 (CHO) cell lines over-expressing the ion channel of choice (hERG) were used in assay-ready format and kept in liquid nitrogen or were used from live culture. Cells were either thawed and diluted in HBSS or were detached from flasks and resuspended in HBSS. HBSS comprised 140 mM NaCl, 4 mM KCl, 10 mM HEPES and 5 mM Glucose (pH7.4). The internal patch clamp solution was KF 120 mM, KCl 20 mM, HEPES 10 mM, EGTA 10 mM, and 25 PM Escin (pH 7.2). After the sealing process was complete, the external solution was exchanged for external patch clamp solution comprising NaCl 80 mM, KCl 4 mM, HEPES 10 mM, CaCl2 2 mM, MgCl2 1 mM, glucose 5 mM, and NMDG 60 mM (pH 7.4). All solutions were stored at room temperature, except Escin, which was stored at 4° C. All test compounds were dispensed in greiner-bio 384 well plates and tested in a 6 point cumulative assay (final DMSO concentration 0.33%). Only wells that passed previously agreed acceptance criteria for this platform were used in this analysis (30 MegaOhm seal resistance, Z prime >0.4 and current size >0.2 nA). […]

[2] = target: GSK3β (Glycogen synthase kinase-3 beta) (Homo sapiens, UniProt P49841); experiment: Assay 6 GSK3β assay (ThermoFisher Z-Lyte FRET); format: biochemical; settings: ATP Conc: 10 μM, geometric mean; read-out: Assay 6 (GSK3β FRET-Z-Lyte Cr) GMean IC50
Method: This assay measures the activity of the compounds at GSK33 (Glycogen synthase kinase-3 beta).
The test compounds were screened in 1% DMSO (final) in the well. For 10 point titrations, 3-fold serial dilutions are conducted from the starting concentration of 10 PM.
Bar-coded Corning, low volume NBS, black 384-well plate • 1. 2.5 μL—4× Test Compound or 100 nL 100× plus 2.4 μL kinase buffer • 2. 5 μL—2× Peptide/Kinase Mixture • 3. 2.5 μL—4×ATP Solution • 4. 30-second plate shake • 5. 60-minute Kinase Reaction incubation at room temperature • 6. 5 μL—Development Reagent Solution • 7. 30-second plate shake • 8. 60-minute Development Reaction incubation at room temperature • 9. Read on fluorescence plate reader and analyse the data
In step 2, the 2×GSK3β (GSK3 beta)/Ser/Thr (Glycogen synthase kinase-3 beta/Serine/Threonine) 09 mixture is prepared in 50 mM HEPES (4-(2-hydroxyethyl)-1-piperazineethanesulfonic acid) pH 7.5, 0.01% BRIJ-35, 10 mM MgCl2, 1 mM EGTA (egtazic acid). The final 10 μL Kinase Reaction consists of 0.22-0.92 ng GSK3β (GSK3 beta) and 2 PM Ser/Thr 09 in 50 mM HEPES pH 7.5, 0.01% BRIJ-35, 10 mM MgCl2, 1 mM EGTA.
In step 3 the ATP Solution is diluted to a 4× working concentration in Kinase Buffer (50 mM HEPES pH 7.5, 0.01% BRIJ-35, 10 mM MgCl2, 1 mM EGTA).
In Step 6 the Development Reagent is diluted 1:512 in Development Buffer (10× Novel PKC Lipid Mix: 2 mg/mL Phosphatidyl Serine, 0.2 mg/mL DAG in 20 mM HEPES, pH 7.4, 0.3% CHAPS).
SelectScreen® Kinase Profiling Service uses XLfit from IDBS. The dose response curve is curve fit to model number 205 (sigmoidal dose-response model).

PCSK9 [3] = target: T2, PCSK9 (Homo sapiens, UniProt Q8NBP7, G670E/V474I); experiment: biochemical
PCSK9 [4] = target: T2, PCSK9; experiment: Assay 3 PCSK9 LDL-C uptake assay in HepG2 cells; format: cell-based; parameters: TEV site (C); His6 (C); host or cells: added to HepG2 (ATCC #HB-8065); settings: 125 nM PCSK9, pHrodo Red-LDL, read-out: Assay 3 LDL uptake potency
Excerpt: This assay measures for PCSK9 antagonist activity based on a test compound's capacity to restore LDL-C-uptake in HepG2 cells. The assay is based on exogenous PCSK9 and LDL-C complexed with a pH-sensitive dye. Outside the cells, at neutral pH, the pHrodo Red-LDL is dimly fluorescent but upon LDLR mediated endocytosis it fluoresces brightly. PCSK9 traffics the LDLR to intracellular degradation and reduces uptake of LDL-C. Inhibition of PCSK9 reduces LDLR degradation and the increased LDL-C uptake is quantified by fluorescence microscopy.
• Cell medium: MEM supplemented with 10% FBS, 1×NEAA and Sodium Pyruvate • Assay medium: OptiMem supplemented with penicillin/streptomycin • Cells: HepG2 (ATCC #HB-8065)
• 1. Cryopreserved HepG2 cells were thawed in assay medium and centrifuged for 5 min at 250 g. Supernatant was discarded and the cell pellet resuspended in cell medium and counted with a Nucleocounter. Cells were again centrifuged 5 min at 250 g and the pellet was resuspended to 500000 cells/mL in assay medium. • 2. 20 μL of above cell mix was dispensed into black μclear TC treated 384 well plates with Multidrop Combi and left at room temperature for 20 minutes. • 3. Plates were incubated at 37° C., 5% CO2 for 24 h
• 1. Test compounds were prepared in concentration response in DMSO with a half-log dilution factor in DMSO in Echo 384 LDV plates starting at 10 mM. • 2. 30 nL of above test compounds were dispensed with Echo 655 to cells for a top concentration of 10 μM • 3. 10 μL PCSK9 in assay medium was dispensed to cells with Multidrop Combi for 125 nM final concentration in the wells. • 4. Plates were incubated at 37° C., 5% CO2 for 24 h
• 1. 10 μL pHrodo Red-LDL in assay medium was dispensed to cells with Multidrop Combi for […] • 2. Plates were incubated at 37° C., 5% CO2 and imaged with the Incucyte S3 after 4 h and 24 h
Image data was processed using Incucyte 2021, a software to identify cells and red fluorescent intensity. Screener was used to further process data. Data was normalized as % effect of the signal between median values of the on-plate controls of DMSO and 100 nM Evolocumab according to the formula % effect=−100*(x−DMSO)/(Evolocumab−DMSO) where x equals the measured signal. Concentration response data of the normalized values were fitted using a four-parameter logistic fit.

T1 sequence (Q12809 whole entry): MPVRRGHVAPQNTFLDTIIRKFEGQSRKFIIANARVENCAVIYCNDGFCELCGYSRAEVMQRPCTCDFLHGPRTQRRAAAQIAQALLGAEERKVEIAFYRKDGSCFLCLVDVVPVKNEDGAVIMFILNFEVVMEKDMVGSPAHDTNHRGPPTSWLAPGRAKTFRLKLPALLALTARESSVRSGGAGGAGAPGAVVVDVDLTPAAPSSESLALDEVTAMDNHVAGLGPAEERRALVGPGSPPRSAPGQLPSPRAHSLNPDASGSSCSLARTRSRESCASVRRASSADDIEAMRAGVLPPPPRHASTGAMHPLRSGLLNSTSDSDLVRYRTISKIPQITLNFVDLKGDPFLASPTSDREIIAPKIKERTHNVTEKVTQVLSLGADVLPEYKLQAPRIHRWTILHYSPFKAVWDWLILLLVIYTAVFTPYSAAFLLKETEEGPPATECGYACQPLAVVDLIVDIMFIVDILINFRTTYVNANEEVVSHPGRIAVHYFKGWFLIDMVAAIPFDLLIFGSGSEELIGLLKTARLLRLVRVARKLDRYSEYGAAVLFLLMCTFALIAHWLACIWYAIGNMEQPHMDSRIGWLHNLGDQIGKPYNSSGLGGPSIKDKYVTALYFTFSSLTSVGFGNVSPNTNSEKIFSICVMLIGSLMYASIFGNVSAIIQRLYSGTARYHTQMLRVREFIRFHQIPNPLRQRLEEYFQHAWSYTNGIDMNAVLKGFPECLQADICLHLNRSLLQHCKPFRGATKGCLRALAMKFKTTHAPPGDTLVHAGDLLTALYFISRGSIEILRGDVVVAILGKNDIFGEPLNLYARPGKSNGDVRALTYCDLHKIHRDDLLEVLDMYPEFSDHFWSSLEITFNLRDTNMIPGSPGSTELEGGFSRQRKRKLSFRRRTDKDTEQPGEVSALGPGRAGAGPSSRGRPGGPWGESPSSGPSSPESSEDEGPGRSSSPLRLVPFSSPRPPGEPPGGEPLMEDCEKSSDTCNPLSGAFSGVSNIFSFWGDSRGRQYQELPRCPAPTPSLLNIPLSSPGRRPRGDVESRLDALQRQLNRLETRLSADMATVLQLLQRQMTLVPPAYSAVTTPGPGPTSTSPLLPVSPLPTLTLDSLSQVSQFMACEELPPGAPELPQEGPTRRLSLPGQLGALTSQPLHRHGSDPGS
T2 sequence (Q8NBP7 with tags, fused parts or gaps V474I/G670E): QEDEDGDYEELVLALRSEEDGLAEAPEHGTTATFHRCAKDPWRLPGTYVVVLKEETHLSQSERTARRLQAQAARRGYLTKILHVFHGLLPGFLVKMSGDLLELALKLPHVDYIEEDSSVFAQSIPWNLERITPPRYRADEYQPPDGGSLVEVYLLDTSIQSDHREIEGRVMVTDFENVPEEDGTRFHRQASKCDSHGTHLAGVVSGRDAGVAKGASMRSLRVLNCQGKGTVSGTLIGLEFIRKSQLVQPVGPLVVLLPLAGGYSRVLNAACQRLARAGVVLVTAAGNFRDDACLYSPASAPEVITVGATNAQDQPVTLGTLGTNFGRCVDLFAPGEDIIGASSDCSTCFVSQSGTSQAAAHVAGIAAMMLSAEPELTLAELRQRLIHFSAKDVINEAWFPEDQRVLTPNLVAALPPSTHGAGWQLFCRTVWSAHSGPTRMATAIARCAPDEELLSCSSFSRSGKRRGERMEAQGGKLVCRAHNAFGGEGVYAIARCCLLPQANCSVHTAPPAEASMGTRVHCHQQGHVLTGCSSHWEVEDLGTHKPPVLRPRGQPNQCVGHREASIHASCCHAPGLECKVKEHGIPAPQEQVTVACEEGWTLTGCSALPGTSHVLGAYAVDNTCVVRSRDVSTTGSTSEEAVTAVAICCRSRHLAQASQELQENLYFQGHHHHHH
Sequence of GSK3β (Glycogen synthase kinase-3 beta) (P49841 whole entry): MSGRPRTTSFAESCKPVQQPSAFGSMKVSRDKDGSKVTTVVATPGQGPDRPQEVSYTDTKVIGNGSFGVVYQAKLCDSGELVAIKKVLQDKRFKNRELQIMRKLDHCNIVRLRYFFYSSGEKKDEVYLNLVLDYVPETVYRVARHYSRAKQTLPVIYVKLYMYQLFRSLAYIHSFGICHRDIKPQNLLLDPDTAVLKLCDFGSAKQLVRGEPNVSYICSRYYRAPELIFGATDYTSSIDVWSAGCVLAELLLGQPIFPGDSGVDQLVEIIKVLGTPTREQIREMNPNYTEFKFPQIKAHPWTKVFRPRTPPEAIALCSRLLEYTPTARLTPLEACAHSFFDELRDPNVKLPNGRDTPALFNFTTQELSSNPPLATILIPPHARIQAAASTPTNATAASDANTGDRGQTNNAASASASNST

SMILES	IC50 [1] [nM]	IC50 [2] [nM]	IC50 (PCSK9 [3]) [nM]	EC50 (PCSK9 [4]) [nM]
Cc1cnc(N[C@H]2CC[C@H](Nc3ccc(-n4cccc(C)c4=O)cn3)C2)nn1 (racemic) [Example 173, rel-3-Methyl-6′-(((1 R,3R)-3-((6-methyl-1,2,4-triazin-3-yl)amino)cyclopentyl)amino)-2H-[1,3′-bipyridin]-2-one]	> 40100	1950	4.2	100
COc1ccc(=O)n(-c2ccc(NCC(CCO)CNc3ncc(C)nn3)nc2)c1 (racemic) [Example 317, rac-6′-((4-Hydroxy-2-(((6-methyl-1,2,4-triazin-3-yl)amino)methyl)butyl)amino)-5-methoxy-2H-[1,3′-bipyridin]-2-one]	> 40000		4430	> 800
O=c1ccc(-c2c[nH]nn2)cn1-c1ccc(N[C@H]2CC[C@H](Nc3ncc(C4CC4)nn3)C2)nc1 [Example 122, 6′-(((1S,3S)-3-((6-Cyclopropyl-1,2,4-triazin-3-yl)amino)cyclopentyl)amino)-5-(1H-1,2,3-triazol-4-yl)-2H-[1,3′-bipyridin]-2-one]	> 40100	6170	1.4	100
O=c1ccc(-c2cn[nH]c2)cn1-c1ccc(N[C@H]2CC[C@H](Nc3ncc(C4CC4)nn3)C2)nc1 [Example 123, 6′-(((1S,3S)-3-((6-Cyclopropyl-1,2,4-triazin-3-yl)amino)cyclopentyl)amino)-5-(1H-pyrazol-4-yl)-2H-[1,3′-bipyridin]-2-one]	> 40100	8840	1.4	100
O=c1ccc(-c2nnn[nH]2)cn1-c1ccc(N[C@H]2CC[C@H](Nc3ncc(C4CC4)nn3)C2)nc1 [Example 124, 6′-(((1S,3S)-3-((6-Cyclopropyl-1,2,4-triazin-3-yl)amino)cyclopentyl)amino)-5-(1H-tetrazol-5-yl)-2H-[1,3′-bipyridin]-2-one]	> 40100	1070	1	100
Cn1c(=O)n(-c2ccc(N[C@H]3CC[C@H](Nc4ncc(C5CC5)nn4)C3)nc2)c2cc(P(C)(C)=O)ccc21 [Example 125, 3-(6-(((1S,3S)-3-((6-Cyclopropyl-1,2,4-triazin-3-yl)amino)cyclopentyl)amino)pyridin-3-yl)-5-(dimethylphosphoryl)-1-methyl-1,3-dihydro-2H-benzo[d]imidazol-2-one]	> 40100	> 10000	2.7	100
Cc1ccc(=O)n(-c2ccc(N[C@H]3CC[C@H](Nc4ncc(C)nn4)C3)nc2)c1 [Example 130, 5-Methyl-6′-(((1S,3S)-3-((6-methyl-1,2,4-triazin-3-yl)amino)cyclopentyl)amino)-2H-[1,3′-bipyridin]-2-one]	> 40100	5700	14	200
Cc1cnc(N[C@H]2CC[C@H](Nc3ccc(-n4cccc(C#N)c4=O)cn3)C2)nn1 [Example 136, 6′-(((1S,3S)-3-((6-Methyl-1,2,4-triazin-3-yl)amino)cyclopentyl)amino)-2-oxo-2H-[1,3′-bipyridine]-3-carbonitrile]	> 40100	> 10000	3	200
Cc1cnc(N[C@H]2CC[C@H](Nc3ccc(-n4cccc(F)c4=O)cn3)C2)nn1 [Example 137, 3-Fluoro-6′-(((1S,3S)-3-((6-methyl-1,2,4-triazin-3-yl)amino)cyclopentyl)amino)-2H-[1,3′-bipyridin]-2-one]	> 40100	3520	10	700
Cc1cnc(N[C@H]2CC[C@H](Nc3ccc(-n4cccc(OC(F)(F)F)c4=O)cn3)C2)nn1 [Example 138, 6′-(((1S,3S)-3-((6-Methyl-1,2,4-triazin-3-yl)amino)cyclopentyl)amino)-3-(trifluoromethoxy)-2H-[1,3′-bipyridin]-2-one]	> 40100	> 10000	4	200
COc1cccn(-c2ccc(N[C@H]3CC[C@H](Nc4ncc(C(=O)NC5COC5)nn4)C3)nc2)c1=O [Example 153, 3-(((1S,3S)-3-((3-Methoxy-2-oxo-2H-[1,3′-bipyridin]-6′-yl)amino)cyclopentyl)amino)-N-(oxetan-3-yl)-1,2,4-triazine-6-carboxamide]	> 40100	> 10000	3.3	100
COc1ccc(=O)n(-c2ccc(N[C@H]3CC[C@H](Nc4ncc(C(=O)NC5COC5)nn4)C3)nc2)c1 [Example 154, 3-(((1S,3S)-3-((5-Methoxy-2-oxo-2H-[1,3′-bipyridin]-6′-yl)amino)cyclopentyl)amino)-N-(oxetan-3-yl)-1,2,4-triazine-6-carboxamide]	> 40100	3900	14	200
Cc1cccn(-c2ccc(N[C@H]3CC[C@H](Nc4ncc(C(=O)NC5COC5)nn4)C3)nc2)c1=O [Example 155, 3-(((1S,3S)-3-((3-Methyl-2-oxo-2H-[1,3′-bipyridin]-6′-yl)amino)cyclopentyl)amino)-N-(oxetan-3-yl)-1,2,4-triazine-6-carboxamide]	> 40100	> 10000	2.7	100
Cc1ccc(=O)n(-c2ccc(N[C@H]3CC[C@H](Nc4ncc(C(=O)NC5COC5)nn4)C3)nc2)c1 [Example 156, 3-(((1S,3S)-3-((5-Methyl-2-oxo-2H-[1,3′-bipyridin]-6′-yl)amino)cyclopentyl)amino)-N-(oxetan-3-yl)-1,2,4-triazine-6-carboxamide]	> 40100	> 10000	14	100
